System: MG63 osteosarcoma cells
Assay: In vitro MG63 osteosarcoma proliferation assay, Test (c)
Format: cell-based
Conditions: Homo sapiens, MG-63, BrdU, 72 hours, read-out: IC50 versus MG63 osteosarcoma proliferation
Protocol: This assay determined the ability of a test compound to inhibit the proliferation of MG63 osteosarcoma cells (ATCC CCL 1427):
MG63 cells were seeded at 1.5×10^3 cells per well into 96-well clear tissue culture-treated assay plates (Corning Life Sciences; Catalogue No. 3595) to which had been added 60 μl per well of test medium comprising DMEM without phenol red, 1% charcoal-stripped FCS and 2 mM glutamine and the cells were incubated overnight at 37° C. with 7.5% CO2.
Test compounds were solubilised in DMSO to provide a 10 mM stock solution. Aliquots of the stock solution were diluted with the test medium described above and 20 μl aliquots of each dilution were added to appropriate wells. Serial dilutions were made to give a range of test concentrations. […]
BrdU labelling reagent (Roche Diagnostics Ltd., Lewes, East Sussex, UK; Catalogue No. 647 229) was diluted by a factor of 1:100 in DMEM medium containing 1% charcoal stripped FCS and aliquots (10 μl) were added to each well to give a final concentration of 10 μM. […] Aqueous sulphuric acid (1M; 50 μl) was added to the appropriate wells to stop any further reaction and the absorbance of the wells was measured at 450 nm. The extent of inhibition of cellular proliferation at a range of concentrations of each test compound was determined and an anti-proliferative IC50 value was derived.

IC50: ~40 nM
Structure (SMILES): COc1cc2ncnc(Oc3cnn(CC(=O)Nc4cccc5c4OCO5)c3)c2cc1OC [Example 2, N-(2,3-methylenedioxyphenyl)-2-[4-(6,7-dimethoxyquinazolin-4-yloxy)pyrazol-1-yl]acetamide]

— patent US20090036474A1, “Quinazoline derivatives for use against cancer” (priority 2004, published 2009)
